Laboratory results taken from article PMC4175417 (Journal of clinical pharmacology, 2013).
Where two headings read alike, the source gives them in different places. Marks after values point to notes of the source that are not given here.

Assays:
clinical = details: human, in vivo
mRCC patients [1] = experiment: Efficacy in mRCC studies; assay type: in vivo, human
[2] = cited from earlier work
mRCC patients [3] = details: cited from earlier work
Axitinib exposure = assay type: in vivo; details: human, plasma, oral
[4] = In-clinic diastolic blood pressure in mRCC patients of the PK/PD analysis; assay type: in vivo, human; details: maximum post-baseline dBP within the first 8 weeks; 168 mRCC patients
[5] = cited from earlier work; remark: listed apart in the source
mRCC = details: second-line therapy for mRCC; cited from earlier work
[6] = corrected serum calcium <10 mg/dL
[7] = corrected serum calcium ≥10 mg/dL
[8] = corrected serum calcium ≥10 vs <10 mg/dL
[9] = hemoglobin >13 g/dL for male, >11.5 for female
[10] = hemoglobin ≤13 g/dL for male, ≤11.5 for female
[11] = per 10 mm Hg increase of dBP, adjusted for prognostic factors
[12] = per 100 hxng/mL increase of AUC, adjusted for prognostic factors
[13] = sorafenib- vs cytokine-refractory

Structure (SMILES): CNC(=O)c1ccccc1Sc1ccc2c(/C=C/c3ccccn3)n[nH]c2c1 [axitinib]
- Vd (clinical): 47.3 L
- clearance (clinical): 243 mL/min
- Effect of food on oral bioavailability (Form XLI): negligible effect
- Vp (volume of distribution in peripheral compartment) (final model): 393 L
- Age >60-yr effect on CL (human, in vivo): −0.213
- F with Form XLI (human, in vivo): g F with Form XLI is estimated to be 0.402; calculated as 0.457 × (1 – 0.121). Note that there was no observed food effect with Form XLI.
- F, fasting with Form IV (human, in vivo): f For fasting effect with Form IV, F is estimated to be 0.608; calculated as 0.457 × (1 + 0.33).
- Fasting effect on ka (human, in vivo): 1.97
- Fasting on F, Form IV (human, in vivo): 0.330
- Japanese ethnicity effect on CL (human, in vivo): −0.249
- Q (apparent inter-compartmental clearance) (human, in vivo): 4.00 (86.8) ^d L/h
- Smoking status on CL (human, in vivo): 1.02
- ka (first-order absorption rate constant): fed (human, in vivo): 0.482 (77) hour^–1
- ka higher in the fasted state compared with the fed state (human, in vivo): 197%
- ka, fasting (human, in vivo): e For fasting effect, ka is estimated to be 1.43 hour^−1; calculated as 0.482 hour^−1 × (1 + 1.97).
- tlag (absorption lag time) (human, in vivo): 0.454 h
- Increase of oral bioavailability in the fasted state compared with the fed state (human, in vivo, po): 33%
- mOS (mRCC patients [1]; AUC <300 hxng/mL): 15.8 months
- mPFS (mRCC patients [1]; AUC <300 hxng/mL): 7.4 months
- mOS (mRCC patients [1]; AUC ≥300 hxng/mL): 37.4 months
- mPFS (mRCC patients [1]; AUC ≥300 hxng/mL): 13.8 months
- OS HR (95% CI), multivariate (mRCC patients [1]; ECOG PS): 2.37 (1.50, 3.72)
- PFS HR (95% CI), multivariate (mRCC patients [1]; ECOG PS): 1.82 (1.17, 2.83)
- mOS (mRCC patients [1]; ECOG PS 0): 41.6 months
- mPFS (mRCC patients [1]; ECOG PS 0): 13.7 months
- mOS (mRCC patients [1]; ECOG PS 1): 10.7 months
- mPFS (mRCC patients [1]; ECOG PS 1): 7.13 months
- OS HR (95% CI), univariate (mRCC patients [1]; ECOG PS 1 vs 0): 3.63 (2.40, 5.48)
- PFS HR (95% CI), univariate (mRCC patients [1]; ECOG PS 1 vs 0): 2.17 (1.46, 3.23)
- OS HR (95% CI), univariate (mRCC patients [1]; age, continuous): 0.992 (0.972, 1.01)
- PFS HR (95% CI), univariate (mRCC patients [1]; age, continuous): 1.006 (0.986, 1.026)
- mOS (mRCC patients [1]; [6]): 27.7 months
- mPFS (mRCC patients [1]; [6]): 11.1 months
- mOS (mRCC patients [1]; [7]): 16.4 months
- mPFS (mRCC patients [1]; [7]): 8.38 months
- OS HR (95% CI), univariate (mRCC patients [1]; [8]): 1.74 (1.03, 2.96)
- PFS HR (95% CI), univariate (mRCC patients [1]; [8]): 1.21 (0.688, 2.13)
- mOS (mRCC patients [1]; cytokine-refractory): 30.0 months
- mPFS (mRCC patients [1]; cytokine-refractory): 13.0 months
- mOS (mRCC patients [1]; dBP <90 mm Hg): 18.5 months
- mPFS (mRCC patients [1]; dBP <90 mm Hg): 7.86 months
- mOS (mRCC patients [1]; dBP ≥90 mm Hg): 29.5 months
- mPFS (mRCC patients [1]; dBP ≥90 mm Hg): 14.6 months
- mOS (mRCC patients [1]; female): 19.6 months
- mPFS (mRCC patients [1]; female): 7.63 months
- OS HR (95% CI), univariate (mRCC patients [1]; female vs male): 1.26 (0.799, 1.97)
- PFS HR (95% CI), univariate (mRCC patients [1]; female vs male): 1.63 (1.09, 2.46)
- Increase in the probability of achieving a partial response (mRCC patients [1]; for every 100 hxng/mL increase in AUC, logistic regression): 1.5 fold
- PFS HR (95% CI), multivariate (mRCC patients [1]; gender): 1.72 (1.14, 2.60)
- OS HR (95% CI), multivariate (mRCC patients [1]; hemoglobin): 0.348 (0.213, 0.567)
- PFS HR (95% CI), multivariate (mRCC patients [1]; hemoglobin): 0.601 (0.393, 0.921)
- mOS (mRCC patients [1]; [9]): 43.3 months
- mPFS (mRCC patients [1]; [9]): 14.6 months
- mOS (mRCC patients [1]; [10]): 15.9 months
- mPFS (mRCC patients [1]; [10]): 7.69 months
- OS HR (95% CI), univariate (mRCC patients [1]; high vs low hemoglobin): 0.282 (0.179, 0.443)
- PFS HR (95% CI), univariate (mRCC patients [1]; high vs low hemoglobin): 0.537 (0.364, 0.792)
- mOS (mRCC patients [1]; male): 27.7 months
- mPFS (mRCC patients [1]; male): 13.0 months
- OS HR (95% CI), multivariate (mRCC patients [1]; [11]): 0.739 (0.586, 0.931)
- PFS HR (95% CI), multivariate (mRCC patients [1]; [11]): 0.660 (0.519, 0.839)
- OS HR (95% CI), multivariate (mRCC patients [1]; [12]): 0.866 (0.773, 0.968)
- PFS HR (95% CI), multivariate (mRCC patients [1]; [12]): 0.909 (0.832, 0.993)
- OS HR (95% CI), multivariate (mRCC patients [1]; prior therapy): 2.12 (1.35, 3.34)
- PFS HR (95% CI), multivariate (mRCC patients [1]; prior therapy): 1.60 (1.04, 2.47)
- OS HR (95% CI), univariate (mRCC patients [1]; [13]): 2.15 (1.39, 3.34)
- PFS HR (95% CI), univariate (mRCC patients [1]; [13]): 1.55 (1.02, 2.34)
- mOS (mRCC patients [1]; sorafenib-refractory): 15.8 months
- mPFS (mRCC patients [1]; sorafenib-refractory): 7.63 months
- Time to peak plasma concentration ([2]; oral administration, fed state): 2 to 6 h
- Maximum tolerated dose (MTD) ([2]; study 1, patients with solid tumors): 5 mg bid
- RECIST-based overall response rate (mRCC patients [3]; study 2, cytokine-refractory mRCC): 44%
- RECIST-based overall response rate (mRCC patients [3]; study 4, sorafenib-refractory mRCC): 23%
- RECIST-based overall response rate (mRCC patients [3]; study 5, Japanese cytokine-refractory mRCC): 50%
- AUC (Axitinib exposure): 375 ng·h/mL
- dBP, median (range) [4]: 90 (58–116) ^e mm Hg
- Exposure compared with normal hepatic function ([5]; mild hepatic impairment): did not alter axitinib exposures
- Higher exposure compared with normal hepatic function ([5]; moderate hepatic impairment): 2 fold
- Efficacy versus sorafenib (mRCC): superior efficacy over sorafenib
